The conditions of data set [1]: cited from earlier work.
Data set [2] concerns guinea pigs. The data set can be described thus: Hypersensitivity test in animals. The format is in vivo. The protocol:
18 healthy guinea pigs weighed 250-350 g were divided into 3 groups (a test group, a negative control group, and a positive control group) of 6 animals each at random. […] In 15 min after the injection, the hypersensitive responses of the injected guinea pigs were observed. A positive response was determined if two or more of piloerection, dyspnea, or 3 cough sounds, or one of twitch, collapse or death appeared.

On to `C=CC[C@@H]1/C=C(\C)C[C@H](C)C[C@H](OC)[C@H]2O[C@@](O)(C(=O)C(=O)N3CCCC[C@H]3C(=O)O[C@H](/C(C)=C/[C@@H]3CC[C@@H](O)[C@H](OC)C3)[C@H](C)[C@@H](O)CC1=O)[C@H](C)C[C@@H]2OC` (relative stereo) [tacrolimus, [3S—[3R*[E(1S*,3S*,4S*)],4S*,5R*,8S*,9E,12R*,14R*,15S*,16R*,18S*,19S*,26aR*]]-5,6,8,11,12,13,14,15,16,17,18,19,24,25,26a-hexa-decahydro-5,19-dihydroxy-3-[2-(4-hydroxy-3-methoxycyclohexyl)-1-methylethenyl]-14,16-dimethoxy-4,10,12,18-tetramethyl-8-(2-propenyl)-15,19-epoxy-3H-pyrido[2,1-c][1,4]oxazacyclotricosene-1,7,20,21(4H,23H)-tetrone, monohydrate], for which the “Solubility in organic solvents” value in data set [1] (organic solvents (such as methanol, ethanol, or acetone)) is given as “freely soluble”. For the same molecule, the Solubility in water entry in data set [1] (water) is “practically insoluble”.

B1: 10% ovalbumin solution: 10% ovalbumin solution, positive control of the hypersensitivity test (protein, UniProt P01012 2-386, looked up)
Ovalbumin: GSIGAASMEFCFDVFKELKVHHANENIFYCPIAIMSALAMVYLGAKDSTRTQINKVVRFDKLPGFGDSIEAQCGTSVNVHSSLRDILNQITKPNDVYSFSLASRLYAEERYPILPEYLQCVKELYRGGLEPINFQTAADQARELINSWVESQTNGIIRNVLQPSSVDSQTAMVLVNAIVFKGLWEKAFKDEDTQAMPFRVTEQESKPVQMMYQIGLFRVASMASEKMKILELPFASGTMSMLVLLPDEVSGLEQLESIINFEKLTEWTSSNVMEERKIKVYLPRMKMEEKYNLTSVLMAMGITDVFSSSANLSGISSAESLKISQAVHAAHAEINEAGREVVGSAEAGVDAASVSEEFRADHPFLFCIKHIATNAVLFFGRCVSP
Regarding B1, the “Occurrence of hypersensitive response” value in data set [2] (guinea pigs, n = 6, intraperitoneal sensitization, intravenous boost at days 14 and 21, animals responding/total) is reported as 6/6. For the same molecule, the “Hypersensitive response of positive control (in words)” value in data set [2] (in 1 min after two times of intravenous administration, 6 guinea pigs) was “cough, respiratory depression, and twitch to death occur to all of the 6 guinea pigs”.

(Values after US9060928B2, “Tacrolimus injection preparation” (FUZHOU HARVESTER PHARMACEUTICAL R&D CO., LTD., priority 2009, dated 2015).)
